Laboratory results taken from patent US8822449B2, “Substituted aminoindanes and analogs thereof, and the pharmaceutical use thereof” (Sanofi, priority 2008, dated 2014).

Biological target: T1, sodium-proton exchanger of subtype 3 (NHE3) (Homo sapiens, UniProt P48764)
T1 construct: expressed in transfected cells
T1 sequence (P48764 26-834): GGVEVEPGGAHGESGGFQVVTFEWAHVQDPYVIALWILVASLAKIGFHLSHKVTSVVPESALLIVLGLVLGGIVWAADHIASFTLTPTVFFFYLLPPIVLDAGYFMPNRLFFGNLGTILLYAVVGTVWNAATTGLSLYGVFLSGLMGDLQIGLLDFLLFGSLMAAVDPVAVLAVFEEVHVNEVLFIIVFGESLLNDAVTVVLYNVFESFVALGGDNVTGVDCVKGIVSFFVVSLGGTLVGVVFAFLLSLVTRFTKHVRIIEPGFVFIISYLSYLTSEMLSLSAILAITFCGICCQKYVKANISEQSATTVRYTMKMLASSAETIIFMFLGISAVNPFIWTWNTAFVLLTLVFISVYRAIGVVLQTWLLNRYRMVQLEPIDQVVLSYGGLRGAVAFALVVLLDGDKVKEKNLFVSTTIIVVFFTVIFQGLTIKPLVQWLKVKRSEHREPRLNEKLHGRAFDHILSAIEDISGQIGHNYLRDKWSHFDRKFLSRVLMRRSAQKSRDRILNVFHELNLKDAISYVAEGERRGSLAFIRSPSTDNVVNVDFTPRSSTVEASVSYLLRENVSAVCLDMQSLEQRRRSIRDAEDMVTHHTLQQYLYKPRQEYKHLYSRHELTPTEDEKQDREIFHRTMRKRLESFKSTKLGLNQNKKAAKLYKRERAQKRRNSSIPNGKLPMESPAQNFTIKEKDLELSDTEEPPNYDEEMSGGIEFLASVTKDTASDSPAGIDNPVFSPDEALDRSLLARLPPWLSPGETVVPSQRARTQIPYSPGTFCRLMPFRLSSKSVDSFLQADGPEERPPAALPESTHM
Assay: Recovery of intracellular pH (pHi) after acidification in LAP1 cells stably expressing NHE3 (BCECF fluorescence, FLIPR)
Assay type: cell-based
Conditions: LAP1 cells stably expressing NHE3; pH recovery after acidification; range 1 is % inhibition at 10 μM; read-out: Activity range (inhibitory effect on NHE3)

| inhibition at 10 µM [%] | IC50 [nM] | SMILES |
| --- | --- | --- |
| 20 to 50 | – | CS(=O)(=O)c1ccccc1O[C@H]1c2ccccc2CC[C@@H]1N1CCOCC1 (racemic) [Example 506, 4-[rac-trans-(1,2)-1-(2-methanesulfonylphenoxy)-1,2,3,4-tetrahydronaphthalen-2-yl]morpholine] |
| – | 1000 to 10000 | N[C@@H]1CCCN([C@@H]2Cc3ccccc3[C@H]2Oc2cccc(CN3CCCCC3)c2)C1 (racemic) [Example 58, (R)-1-[rac-trans-(1,2)-1-(3-piperidin-1-ylmethylphenoxy)indan-2-yl]piperidin-3-ylamine] |
| – | 1000 to 10000 | CS(=O)(=O)c1ccc(O[C@H]2c3cc(Cl)ccc3C[C@@H]2N2CC[C@@H](O)C2)c(Cl)c1 [Example 107, (R)-1-[trans-(1S,2S)-6-chloro-1-(2-chloro-4-methanesulfonylphenoxy)indan-2-yl]pyrrolidin-3-ol] |
| 20 to 50 | – | Cc1ccc(O[C@H]2c3ccccc3CC[C@@H]2N2CCC[C@@H](N)C2)c(Br)c1 (racemic) [Example 35, (R)-1-[rac-trans-(1,2)-1-(2-bromo-4-methylphenoxy)-1,2,3,4-tetrahydronaphthalen-2-yl]piperidin-3-ylamine] |
| – | 1000 to 10000 | N#Cc1ccc(O[C@H]2c3ccccc3CC[C@@H]2N2CCC[C@@H](N)C2)c(F)c1 (racemic) [Example 515, 4-[rac-trans-(1,2)-2-((R)-3-aminopiperidin-1-yl)-1,2,3,4-tetrahydronaphthalen-1-yloxy]-3-fluorobenzonitrile] |
| – | < 1000 | CS(=O)(=O)c1ccc(O[C@H]2c3cc(Cl)cc(Cl)c3C[C@@H]2N2CCCC(NCCO)C2)cc1 (stereo partly drawn) [Example 379, 2-{(R)-1-[trans-(1S,2S)-4,6-dichloro-1-(4-methanesulfonylphenoxy)indan-2-yl]piperidin-3-ylamino}-ethanol] |
| – | < 1000 | CS(=O)(=O)c1ccc(OC2c3ccccc3CC2N2CCC[C@@H](N)C2)c(Cl)c1Cl (mixture of isomers) [Example 31, (R)-1-[rac-trans-(1,2)-1-(2,3-dichloro-4-methanesulfonylphenoxy)indan-2-yl]piperidin-3-ylamine] |
| – | 1000 to 10000 | CC(=O)Nc1cccc(O[C@@H]2c3ccccc3C[C@H]2N2CCC(N)C2)c1 (mixture of isomers) [Example 687, N-{3-[rac-trans-(1,2)-2-(3-aminopyrrolidin-1-yl)indan-1-yloxy]phenyl}acetamide] |

Second part, the compound before the results:

| SMILES | inhibition at 10 µM [%] | IC50 [nM] |
| --- | --- | --- |
| Cc1cc2c(O[C@H]3c4ccccc4CC[C@@H]3N3CCOCC3)cccc2[nH]1 (racemic) [Example 399, 2-methyl-4-(rac-trans-(1,2)-2-morpholin-4-yl-1,2,3,4-tetrahydronaphthalen-1-yloxy)-1H-indole] | 20 to 50 | – |
| Cn1ccn(-c2ccc(O[C@H]3c4cc(Cl)cc(Cl)c4C[C@@H]3N3CC[C@@H](O)C3)c(F)c2)c1=O [Example 329, 1-{4-[trans-(1S,2S)-4,6-dichloro-2-((R)-3-hydroxypyrrolidin-1-yl)indan-1-yloxy]-3-fluorophenyl}-3-methyl-1,3-dihydroimidazol-2-one] | – | < 1000 |
| Cc1nnc(C)n1-c1ccc(O[C@H]2c3cc(Cl)cc(Cl)c3C[C@@H]2N(C)CCN(C)C)c(F)c1 [Example 726, N-{trans-(1S,2S)-4,6-Dichloro-1-[4-(3,5-dimethyl-[1,2,4]triazol-4-yl)-2-fluoro-phenoxy]-indan-2-yl}-N,N′,N′-trimethyl-ethane-1,2-diamine] | – | < 1000 |
| COCCc1ccc(O[C@@H]2c3ccccc3C[C@H]2N2CCC(CN)C2)cc1 (mixture of isomers) [Example 598, C-(1-{rac-trans-(1,2)-1-[4-(2-methoxyethyl)phenoxy]indan-2-yl}pyrrolidin-3-yl)methylamine] | – | 1000 to 10000 |
| CS(=O)(=O)c1ccc(O[C@@H]2c3ccccc3C[C@@H]2n2ccnc2)cc1 (racemic) [Example 261, 1-[rac-cis-(1,2)-1-(4-methanesulfonylphenoxy)indan-2-yl]-1H-imidazole] | 20 to 50 | – |
| NS(=O)(=O)c1ccc(O[C@H]2c3cc(Cl)cc(Cl)c3C[C@@H]2N2CCCC2)cc1 [Example 457, 4-((1S,2S)-4,6-dichloro-2-pyrrolidin-1-ylindan-1-yloxy)benzenesulfonamide] | – | < 1000 |
| NCC1CCN([C@@H]2Cc3ccccc3[C@H]2Oc2ccnc3ccccc23)CC1 (racemic) [Example 622, C-{1-[rac-trans-(1,2)-1-(quinolin-4-yloxy)indan-2-yl]piperidin-4-yl}methylamine] | – | 1000 to 10000 |
| NC(=O)c1cc(Cl)ccc1O[C@H]1c2cc(Cl)cc(Cl)c2C[C@@H]1N1CCC1 [Example 353, 2-((1S,2S)-2-azetidin-1-yl-4,6-dichloroindan-1-yloxy)-5-chlorobenzamide] | 20 to 50 | – |
| O=C1OCCN1c1ccc(Cl)c(O[C@H]2c3cc(Cl)cc(Cl)c3C[C@@H]2N2CC[C@@H](O)C2)c1 [Example 434, 3-{4-chloro-3-[(1S,2S)-4,6-dichloro-2-((R)-3-hydroxypyrrolidin-1-yl)indan-1-yloxy]phenyl}oxazolidin-2-one] | – | < 1000 |
| Cc1nnc(C)n1-c1ccc(O[C@H]2c3cc(Cl)ccc3C[C@@H]2N2CCOCC2)c(Cl)c1 [Example 566, 4-{trans-(1S,2S)-6-chloro-1-[2-chloro-4-(3,5-dimethyl-[1,2,4]triazol-4-yl)phenoxy]indan-2-yl}morpholine] | – | < 1000 |
| Cc1nnc(C)n1-c1ccc(O[C@H]2c3cc(Cl)ccc3C[C@@H]2N2CC[C@@H](F)C2)c(F)c1 [Example 563, 4-{4-[trans-(1S,2S)-6-chloro-2-((R)-3-fluoropyrrolidin-1-yl)indan-1-yloxy]-3-fluorophenyl}-3,5-dimethyl-4H-[1,2,4]triazole] | – | < 1000 |
| NS(=O)(=O)c1ccc(O[C@H]2c3c(Cl)cccc3C[C@@H]2N2CCCC2)cc1 (racemic) [Example 476, 4-(rac-trans-(1,2)-7-chloro-2-pyrrolidin-1-ylindan-1-yloxy)benzenesulfonamide] | – | 1000 to 10000 |
| CC(=O)Nc1cccc(O[C@H]2c3cc(Cl)cc(Cl)c3C[C@@H]2N2CCC[C@@H](N(C)C)C2)c1 [Example 694, N-{3-[trans-(1S,2S)-4,6-dichloro-2-((R)-3-dimethylaminopiperidin-1-yl)indan-1-yloxy]phenyl}acetamide] | – | < 1000 |
| CS(=O)(=O)c1ccc(O[C@H]2c3cc(Cl)cc(Cl)c3C[C@@H]2N2CCCNCC2)cc1 (racemic) [Example 277, 1-[rac-trans-(1,2)-4,6-dichloro-1-(4-methanesulfonylphenoxy)indan-2-yl]-[1,4]diazepane] | – | < 1000 |
